Experimental data from paper PMC6864818, “Antioxidant, Xanthine Oxidase, α-Amylase and α-Glucosidase Inhibitory Activities of Bioactive Compounds from Rumex crispus L. Root” (Molecules, 2019).
Converted amounts (≈) assume the structure as drawn. “And” between values parts separate entries of the source, which are not always exact repeats. Equal values may be shown once. Read-outs that look alike come from different tables or passages of the source. Marks after values point to notes of the source that are not given here.

How the values were obtained:
[1] = molecular target: T1, xanthine oxidase (Homo sapiens, UniProt P47989); conditions: modified xanthine oxidase inhibition methods; ref [33]; cited from earlier work
[2] = DPPH radical scavenging assay; conditions: for IC50: value in brackets
Experimental: (§1) Antioxidant activity of the isolated compounds was determined using DPPH (2,2-diphenyl-1-picrylhydrazyl) radical scavenging assay, ABTS (2,2′-azinobis-(3-ethylbenzothiazoline-6-sulfonic acid)) radical cation decolorization assay, ferric reducing antioxidant power test (FRAP) following previous study [37, 38, 39] with slight modifications.

[3] = molecular target: T1, xanthine oxidase; test: Xanthine oxidase inhibition (XOD), spectrophotometric; type: biochemical
[4] = ABTS radical cation decolorization assay; conditions: ABTS radical scavenging; for IC50: value in brackets
Experimental: as §1

[5] = ferric reducing antioxidant power test (FRAP); conditions: for IC50: value in brackets
Experimental: as §1

[6] = molecular target: T2, α-glucosidase (Saccharomyces cerevisiae, UniProt P53341); test: α-Glucosidase inhibition (AGI), pNPG substrate; type: biochemical
T2 construct: purchased Sigma-Aldrich
Experimental: The α-glucosidase inhibitory activity of isolated fractions was assayed using a synthetic substrate p-nitrophenyl-α-D-glucopyranoside (pNPG). […] (Table 5).
The anti-α-glucosidase activity of C1–C3 was evaluated using a method described previously with some modifications. In brief, an amount of 20 µL methanolic stock solution of isolated compounds was pre-mixed with an equal volume of 0.1 M potassium phosphate buffer (pH 7) and 40 µL of α-glucosidase (from Saccharomyces cerevisiae, Sigma-Aldrich, St. Louis, MO, USA) enzyme solution (0.5 U/mL in 0.1 M potassium phosphate buffer, pH 7). After 6 min incubation at 25 °C, a 20 µL aliquot of 5 mM p-nitrophenyl-α-D-glucopyranoside (pNPG) substrate (in 0.1 M potassium phosphate buffer, pH 7) was added to each reaction and the mixture was incubated for another 8 min. The reaction was terminated by adding 100 µL of 0.2 M Na2CO3, and absorbance was recorded at 405 nm.

T2 sequence (P53341 whole entry): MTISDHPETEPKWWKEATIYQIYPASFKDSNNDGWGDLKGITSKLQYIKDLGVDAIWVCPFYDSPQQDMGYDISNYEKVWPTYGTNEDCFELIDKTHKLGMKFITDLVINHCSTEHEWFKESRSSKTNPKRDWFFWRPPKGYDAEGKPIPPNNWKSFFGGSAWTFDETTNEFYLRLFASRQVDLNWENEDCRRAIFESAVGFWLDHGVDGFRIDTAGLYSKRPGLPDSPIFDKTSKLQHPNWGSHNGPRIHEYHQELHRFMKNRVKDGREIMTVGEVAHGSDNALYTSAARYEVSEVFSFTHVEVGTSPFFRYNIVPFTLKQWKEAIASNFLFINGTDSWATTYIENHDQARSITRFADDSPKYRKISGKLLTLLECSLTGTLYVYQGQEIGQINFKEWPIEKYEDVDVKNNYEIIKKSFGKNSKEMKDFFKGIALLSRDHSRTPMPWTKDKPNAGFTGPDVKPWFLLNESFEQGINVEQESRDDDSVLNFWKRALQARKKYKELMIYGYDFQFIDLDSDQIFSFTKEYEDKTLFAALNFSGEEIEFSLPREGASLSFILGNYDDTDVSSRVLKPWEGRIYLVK
T1 sequence (P47989 whole entry, species assumed): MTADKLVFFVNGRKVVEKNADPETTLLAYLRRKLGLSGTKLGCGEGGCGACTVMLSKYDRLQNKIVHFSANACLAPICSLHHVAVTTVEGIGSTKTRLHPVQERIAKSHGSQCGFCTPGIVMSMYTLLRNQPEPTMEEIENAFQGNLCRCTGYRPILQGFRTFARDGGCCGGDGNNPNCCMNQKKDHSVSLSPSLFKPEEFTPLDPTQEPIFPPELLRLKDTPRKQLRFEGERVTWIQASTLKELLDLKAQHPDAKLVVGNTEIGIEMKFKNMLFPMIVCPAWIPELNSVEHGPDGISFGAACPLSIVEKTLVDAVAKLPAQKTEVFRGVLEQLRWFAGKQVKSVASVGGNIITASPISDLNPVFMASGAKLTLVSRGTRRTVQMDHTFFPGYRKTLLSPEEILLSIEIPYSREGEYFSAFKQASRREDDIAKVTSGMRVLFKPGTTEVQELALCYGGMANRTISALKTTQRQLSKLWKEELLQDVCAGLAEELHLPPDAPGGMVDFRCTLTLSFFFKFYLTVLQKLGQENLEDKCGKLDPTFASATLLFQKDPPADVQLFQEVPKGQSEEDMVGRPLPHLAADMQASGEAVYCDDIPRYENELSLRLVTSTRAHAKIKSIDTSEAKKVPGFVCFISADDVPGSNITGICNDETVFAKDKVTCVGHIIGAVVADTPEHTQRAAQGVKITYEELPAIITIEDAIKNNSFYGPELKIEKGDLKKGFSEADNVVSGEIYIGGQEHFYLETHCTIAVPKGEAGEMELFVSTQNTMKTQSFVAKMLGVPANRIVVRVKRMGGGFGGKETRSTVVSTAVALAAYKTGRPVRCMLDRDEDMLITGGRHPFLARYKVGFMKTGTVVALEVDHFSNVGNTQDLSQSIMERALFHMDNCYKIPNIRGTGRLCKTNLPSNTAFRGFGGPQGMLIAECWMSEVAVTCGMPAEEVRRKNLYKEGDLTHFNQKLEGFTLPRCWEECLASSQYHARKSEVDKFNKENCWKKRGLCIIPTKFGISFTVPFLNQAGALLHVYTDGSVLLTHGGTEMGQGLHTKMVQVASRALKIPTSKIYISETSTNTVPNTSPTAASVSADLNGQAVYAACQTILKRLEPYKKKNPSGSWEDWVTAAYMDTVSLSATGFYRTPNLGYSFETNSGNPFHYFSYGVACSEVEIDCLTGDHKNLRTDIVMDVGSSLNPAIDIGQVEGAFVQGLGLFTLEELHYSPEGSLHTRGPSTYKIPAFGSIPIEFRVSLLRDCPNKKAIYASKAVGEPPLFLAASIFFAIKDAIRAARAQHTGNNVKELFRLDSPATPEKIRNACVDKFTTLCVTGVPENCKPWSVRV

| SMILES | IC50 [1] [µM] | IC50 DPPH [2] | IC50 DPPH ([2]; listed as 2) [µg/mL] | IC50 [2] [µM] | IC50 [3] [µM] | IC50 ([3]; value in brackets) [µM] | IC50 ABTS [4] | IC50 [4] [µM] | IC50 FRAP [5] | IC50 [5] [µM] | IC50 ([6]; pNPG) [µM] | IC50 ([6]; value in brackets) [µM] | IC50 DPPH ([2]; listed as 1) [µg/mL] |
| --- | --- | --- | --- | --- | --- | --- | --- | --- | --- | --- | --- | --- | --- |
| O=C(O)[C@H]1O[C@@H](Oc2cc3oc(-c4ccccc4)cc(=O)c3c(O)c2O)[C@H](O)[C@@H](O)[C@@H]1O [baicalin] | 215 | – | – | – | – | – | – | – | – | – | – | – | – |
| COc1cc(O)c2c(c1)C(=O)c1cc(C)cc(O)c1C2=O [Fraction C3, 1,8-dihydroxy-3-methoxy-6-methylanthraquinone] | – | 12.0 ± 0.2^c µg/mL | 12.1 (≈ 42.6 µM) | 42.3 | 158 | 158 | 44.8 ± 0.8^b µg/mL | 158 | 408.6 ± 6.8^b µg/mL | 1440 | 66.5 | 66.5 | – |
| Cc1cc(O)c2c(c1)C(=O)c1cccc(O)c1C2=O [Fraction C2, 1,8-dihydroxy-3-methylanthraquinone] | – | 10.0 ± 0.3^c µg/mL | – | 39.4 | 143 | 143 | 34.3 ± 0.7^c µg/mL | 135 | 312.6 ± 6.3^c µg/mL | 1230 | 79.1 | 79.1 | 9.8 (≈ 38.5 µM) |
| COc1c(O)cc(O)c2c(=O)cc(-c3ccccc3)oc12 [wogonin] | 157 | – | – | – | – | – | – | – | – | – | – | – | – |
| Cc1cc(C(C)(C)C)c(O)c(C(C)(C)C)c1 [BHT, reference compound] | – | 19.4 µg/mL and 19.2 ± 0.3^b µg/mL | – | 87.1 | – | – | 46.9 ± 0.9^b µg/mL | 213 | 422.1 ± 1.1^b µg/mL | 1920 | – | – | – |
